These results are taken from patent US10849865B2, “Method of reducing neuronal cell death with haloalkylamines” (THE UNIVERSITY OF MONTANA, priority 2013, dated 2020).

Series [1] has as its system rat hippocampal slice cultures exposed to oxygen-glucose deprivation (OGD). As to the kind of experiment: Rat hippocampal slice culture oxygen-glucose deprivation (RHSC-OGD) model, propidium iodide staining. It is filed as cell-based. The method, then:
All experimental animal procedures were approved by the University of Montana Institutional Animal Care and Use Committee in accordance with National Institutes of Health guide for the care and use of Laboratory animals (NIH Publications No. 8023). Hippocampal slice cultures were prepared from the brains of 7-day-old Sprague-Dawley rat pups as previously described (Selkirk et al., 2005, Eur J Neur 21:2291). After 7 days in culture, slices were exposed to oxygen-glucose deprivation (OGD). A glucose free balanced salt solution (BSS) composed of 120 mM NaCl, 5 mM KCl, 1.25 mM NaH2PO4, 2 mM MgSO4, 2 mM CaCl2, 25 mM NaHCO3, 20 mM HEPES, 25 mM sucrose; pH 7.3 was bubbled for one hour with 5% CO2/95% N2 at 10 L/hour. Slices were washed 6 times in deoxygenated SBSS to remove residual glucose, transferred into deoxygenated SBSS, and placed in a 37° C. chamber (Pro-Ox) with an oxygen feedback sensor that maintained gas levels at 0.1% O2, 5% CO2, 94.4% Nitrogen for 60 min. After OGD, the slices were immediately transferred back into pre-warmed Neurobasal media (containing B27 without anti-oxidants) under normal oxygen conditions. […] Neuronal damage was determined by staining slices with propidium iodide (PI; Molecular Probes, Eugene, Oreg.) and quantifying the relative fluorescence intensity (excitation 540/emission 630) using ImagePro Plus software (Media Cybernetics, Silver Springs, Md.). Propidium iodide […] was added to the media at a concentration of 2 μM (Noraberg et al., 1999, Brain Research Protocols 3:278), 4 hours prior to OGD. Images were taken of the hippocampal slices prior to OGD to establish baseline fluorescence. After OGD, slices were placed in normal media containing 2 μM PI and imaged again at 24 hours post-OGD using fluorescence optics with an Olympus IMT-2 microscope and a Hamamatsu camera. The total fluorescent intensity in each slice was determined using ImagePro Plus software (Media Cybernetics, Silver Springs, Md.) and all values were expressed as the percent change from untreated slices exposed to OGD.

Series [2] has as its system rat lateral fluid percussion injury (LFP) model of severe TBI. The experiment in a line: Neurological severity scoring (NSS) after severe TBI (lateral fluid percussion). In kind it is in vivo. Here is the method: Assessments were conducted on days 1, 7, 14, 21, and 30 by a blinded observer. Animals were scored from 0-16 with 0 indicating no impairment, and 16 indicating maximal impairment. Scoring criteria for a severe TBI was 16-10, a moderate TBI was 9-5 and a mild TBI was 4-1. Animals scoring and NSS of 9 or less on day 1 were identified as having a moderate/mild injury and were excluded.
(§1) We selected the test dose for phenoxybenzamine based on current FDA approved levels. […] Assuming a typical adult weighs 70 kg, this represents 1.7 mg/kg body weight. Therefore, we selected a slightly lower, single, intravenous dose of 1 mg/kg body weight. This dose was administered at the clinically relevant time point of 8 hours after severe TBI. Therapeutic effectiveness was determined based on behavioral and cognitive outcomes.

The test system is the same in series [3]. The experiment in a line: Foot fault assessment after severe TBI (lateral fluid percussion). It is filed as in vivo. Here is the method: Briefly, rats were set on an elevated grid. With each weight-bearing step, the paw may fall or slip off the wire grid. Each time the left forelimb (affected by damage to the right hemisphere) missed a placement on the wire rack it was recorded as a foot fault. The total number of steps (movement of each forelimb) that the rat used to cross the grid was counted, and the total numbers of foot faults for each forelimb was recorded.
as §1

Series [4] has the same test system. As to the kind of experiment: Morris water maze (MWM) cognitive function after severe TBI. It is filed as in vivo. The method, then:
The Morris water maze (MWM) was used to assess the impact of phenoxybenzamine on cognitive function (learning and memory) following TBI. […] Pre-acclimation began on day 24 post-TBI. The training phase began on day 25 post-injury, and the probe trial was conducted on day 30 post-injury.

Series [5] deals with α-1 and α-2 adrenergic receptors. As to conditions: with secondary α-2 antagonism; cited from earlier work.
Series [6] relates to α-1 receptors. Conditions: 8 days after a single administration; cited from earlier work.
For series [7], the system named is α-1 and α-2 adrenergic receptors. Conditions: following intravenous administration; cited from earlier work.
For series [8] the following is noted: stuffy nose, mild drowsiness, blurred vision, and upset stomach; cited from earlier work.
Series [9] deals with calmodulin (CaM)/CaMKII (Homo sapiens, UniProt P0DP23). As to conditions: cited from earlier work.
The subject of series [10] is CCL2. The experiment in a line: Gene array analysis of cortical tissue after severe TBI: CCL2. Conditions: 32 hours after the injury (treatment at 8 hours + 24 hours); versus uninjured controls.
Description: (§2) For experiments requiring TBI, a rat model was used. Male Wistar rats (350-500 g) were obtained from Charles River Laboratories (Wilmington, Mass.) and housed with a 12-hour light/dark cycle and ad libitum access to food and water. Severe TBI was induced using the lateral fluid percussion (LFP) procedure as previously described (Rau et al., 2012, J Trauma and Acute Care Surgery 73:S165). Briefly, a 5 mm trephination was made over the right hemisphere equidistant from the lambda and the bregma. Animals were given a fluid pulse to the brain at 1.9-2.3 atm of pressure for 20 msec. All animals experienced apnea and were manually ventilated until normal breathing occurred. […] Saline treated animals underwent the same tail vein injection procedure receiving only pre-warmed saline.
(§3) This time point was chosen in an effort to detect possible gene changes that would affect the development of secondary damage.
Series [11] deals with IL-1β. The experiment in a line: Gene array analysis of cortical tissue after severe TBI: IL-1β. Conditions: 32 hours after the injury (treatment at 8 hours + 24 hours); versus uninjured controls.
Description: as §2, §3
The subject of series [12] is MyD88. As to the kind of experiment: Gene array analysis of cortical tissue after severe TBI: MyD88. Conditions: 32 hours after the injury (treatment at 8 hours + 24 hours); versus uninjured controls.
Description: as §2, §3
The mark [13] stands for this setting: 1 mg/kg body weight, over 30 days after TBI.
[14] abbreviates: 1 mg/kg i.v. 8 hours after severe TBI, 24 hours or 7 days after the TBI.
The mark [15] stands for this setting: administered 8 hours after TBI, probe trial day 30 post-injury.

The structures appear in SMILES notation. “Also recorded” adds a separate entry of the source.

On to `CC(COc1ccccc1)N(CCCl)Cc1ccccc1` (stereo not shown) [phenoxybenzamine], for which the “prevention of neuronal death from OGD (propidium iodide fluorescence)” value in [1] (100 μM added at 2, 4, and 8 hours post-OGD) is given as “prevented neuronal death from OGD in all regions of the hippocampus”. In addition, the “prevention of neuronal death from OGD (propidium iodide fluorescence)” value in series [1] (100 μM added at 16 hours post-OGD) was “prevented neuronal death only in the CA1 region of the hippocampus”. Also, in [1] (delivered up to 16 hours after OGD), the “neuroprotection when delivered after OGD (FIG. 2)” value is recorded as “significant neuroprotection”. In addition, in [2] (setting [13]), the “behavioral function, neurological severity score (FIG. 3A)” value is “significantly improved behavioral function”. Moreover, the “NSS, difference from saline treated animals” value in series [2] (setting [14]) is listed as “no significant differences”. The “behavioral function, foot fault assessments (FIG. 3B)” value in series [3] (setting [13]) is given as “significantly improved behavioral function”. In addition, the “foot fault scoring, difference from saline treated animals” value in series [3] (setting [14]) was “no significant differences”. The “learning and memory after severe TBI (FIG. 4)” value in series [4] (Morris water maze latency and target quadrant time) is “significantly improved learning and memory”. For the same compound, the “MWM learning compared to un-injured sham controls” value in series [4] (administered 8 hours after TBI, any of the training days) is on record as “not significantly different from the un-injured sham control animals”. Further, in series [4] (setting [15]), the “MWM probe trial compared to un-injured sham controls” value was “did not differ from un-injured sham controls” and the “MWM probe trial, time spent searching the target quadrant” value is “approximately 28%”. In series [5], the α-1 adrenergic antagonism entry is given as “potent α-1 adrenergic antagonist”. Moreover, the α-1 receptors recovered in series [6] is reported as 50%. The “time to peak effect of receptor antagonism” value in [7] is listed as “approximately 1 hour”. In series [8], the side effects entry is “minimal”. The “inhibition of CaM/CaMKII activity” value in [9] is “potent inhibitor”. Further, in series [10], the “CCL2 expression in cortical tissue after severe TBI” value is recorded as “no significant increase; also recorded: did not differ from uninjured controls”. For the same compound, in series [11], the “IL-1β expression in cortical tissue after severe TBI” value is on record as “no significant increase; also recorded: did not differ from uninjured controls; also recorded: did not have a significant increase”. In addition, the “MyD88 expression in cortical tissue after severe TBI” value in series [12] is reported as “no significant increase; also recorded: did not differ from uninjured controls; also recorded: equivalent to uninjured controls”.
